From patent publication EP0671413A1, “Somatostatin analogs for preventing NSAID-induced ulcers” (SANDOZ LTD, priority 1994, dated 1995)

Assay: Tolerability after i.p. injection
Format: in vivo
Details: i.p. injection at 100 mg/kg animal body
Source text: Compounds of formula I are well tolerated at dosages required for use in accordance with the present invention.

In the case of C[C@@H](O)[C@@H]1NC(=O)[C@H](CCCCN)NC(=O)[C@@H](Cc2c[nH]c3ccccc23)NC(=O)[C@H](Cc2ccccc2)NC(=O)[C@@H](NC(=O)[C@H](N)Cc2ccccc2)CSSC[C@@H](C(=O)N[C@H](CO)[C@@H](C)O)NC1=O [octreotide], the “increase in GOT” value is reported as “no increase in GOT” and the lethality is reported as “no increase in GOT or any lethality”.
